Test results as given in article PMC12441834, “Highly Potent and Subtype-Selective Sperm-Specific Potassium Channel SLO3 Inhibitors Display High Tissue Exposure in the Murine Female Reproductive Tract” (ACS Pharmacology & Translational Science, 2025).
“And” between values parts separate entries of the source, which are not always exact repeats. Equal entries are not always repeated.

Legend:
Histamine H3 = Histamine H3 (Homo sapiens, UniProt Q9Y5N1); assay: LeadProfilingScreen radioligand binding
Histamine H3, sequence (Q9Y5N1 whole entry): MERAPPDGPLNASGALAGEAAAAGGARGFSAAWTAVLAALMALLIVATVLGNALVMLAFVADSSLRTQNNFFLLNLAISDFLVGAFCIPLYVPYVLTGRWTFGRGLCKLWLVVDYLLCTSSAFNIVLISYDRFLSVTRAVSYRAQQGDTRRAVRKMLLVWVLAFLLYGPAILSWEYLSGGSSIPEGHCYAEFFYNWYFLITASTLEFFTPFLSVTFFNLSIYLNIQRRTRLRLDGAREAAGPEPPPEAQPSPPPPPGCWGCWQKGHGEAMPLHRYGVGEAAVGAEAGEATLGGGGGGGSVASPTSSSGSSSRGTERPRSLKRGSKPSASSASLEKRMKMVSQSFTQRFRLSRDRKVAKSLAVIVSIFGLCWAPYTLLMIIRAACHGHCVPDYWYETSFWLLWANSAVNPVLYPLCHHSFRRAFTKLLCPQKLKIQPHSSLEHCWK

[1] = Multispecies hepatocyte MetID; assay type: in vitro ADME, rat; conditions: 4 h incubation with hepatocytes, 10 μM
Method: Metabolites were identified after preincubating each compound at a 10 μM final concentration with 2.5 × 10^5 hepatocytes from human, dog, cynomolgus monkey, and rat in 200 μL of Optiincubate buffer (BioIVT, Westbury, NY). […] After centrifugation, 60 μL of the supernatant was transferred to 60 μL of water for LC-MS analysis. Samples were analyzed using a Thermo Scientific Vanquish UHPLC consisting of a VH-P10-A pump, a VH-A10-A sampler module, a VH-C10-A column compartment, and the VF-D11-A UV detector coupled to an Orbitrap Fusion Lumos instrument with UVPD. A binary solvent system consisting of (A) water with 0.1% formic acid and (B) acetonitrile with 0.1% formic acid was used with an Accucore Vanquish C18+, 2.1 mm × 100 mm, 1.5 μm, UHPLC column maintained at 40 °C. The data generated by data-dependent acquisition via normal acquisition and AcquireX were processed manually with Thermo Scientific FreeStyle and assisted by Compound Discoverer 3.3.1.111 to aid in the structural assignments.

Adenosine A3 = Adenosine A3 (Homo sapiens, UniProt P0DMS8); assay: LeadProfilingScreen radioligand binding
Adenosine A3, sequence (P0DMS8 whole entry): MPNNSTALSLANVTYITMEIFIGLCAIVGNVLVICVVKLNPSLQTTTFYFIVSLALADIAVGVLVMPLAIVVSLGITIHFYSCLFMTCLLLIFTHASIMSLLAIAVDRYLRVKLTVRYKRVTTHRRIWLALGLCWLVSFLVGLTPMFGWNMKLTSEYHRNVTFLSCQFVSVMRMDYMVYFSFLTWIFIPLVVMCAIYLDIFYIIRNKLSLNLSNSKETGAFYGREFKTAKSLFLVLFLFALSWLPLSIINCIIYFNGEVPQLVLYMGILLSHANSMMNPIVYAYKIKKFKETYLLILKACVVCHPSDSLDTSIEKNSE

Compound	inhibition at 10 µM (Histamine H3)	% of Parent Related Material, Rat [1]	inhibition at 10 µM (Adenosine A3)
Cc1cc(Cl)cc2sc(O[C@H]3CCN(C(=O)CCCS(=O)(=O)c4cccc(Br)c4)C[C@H]3F)nc12 [VU6047606]	11%	90.93% and > 82%	43%
O=C(c1ccc(OCc2ccc(OC(F)(F)F)cc2)cc1)N1CCN(c2ccc(C(F)(F)F)cn2)CC1 [VU6032735]	-16%	> 98%	9%
